Among the test systems are A549 NSCLC; OVCAR-3 ovarian; OVCAR-5 ovarian; SR leukemia; BT-549 breast; SNB-19 CNS; SNB-75 CNS; MCF7 breast; HOP-92 NSCLC; PC-3 prostate.
Holding throughout (experiment): growth of human tumour cells (NCI), 48 h

The structures appear in SMILES notation. Values joined by “and” are separate entries in the source; they are usually repeats but may differ in a detail not shown here. Identical values can stand only once.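 Where inhibition never reached the appropriate level, the endpoint shown equals the highest concentration tested. Otherwise, values were interpolated linearly from a five-concentration, 48-hour dose response in 96-well plates. At the GI50, growth is halved. TGI marks complete inhibition of growth.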

For the molecule `Cc1cnc(Nc2ccc(OCCN3CCCC3)cc2)nc1Nc1cccc(S(=O)(=O)NC(C)(C)C)c1`, the GI50 in the assay on A549 NSCLC is 0.335 µM and 1.36 µM; in the assay with OVCAR-3 ovarian, 0.464 µM and 1.36 µM; in the assay on OVCAR-5 ovarian it was 0.151 µM and 0.928 µM; with SR leukemia, 0.247 µM and 0.502 µM; in the assay with BT-549 breast, 1.74 µM and 2.68 µM; in the assay with SNB-19 CNS, 2.66 µM and 3.4 µM. For the same molecule, the GI50 in the assay on SNB-75 CNS is 0.0852 µM and 0.286 µM; in the assay on MCF7 breast, 0.143 µM and 0.775 µM; in the assay on HOP-92 NSCLC it was 0.196 µM and 0.384 µM; with PC-3 prostate, 0.383 µM and 1.55 µM. Further, the TGI with A549 NSCLC was 7.29 µM and 6 µM; in the assay with OVCAR-3 ovarian, 14.7 µM and > 10 µM; with OVCAR-5 ovarian it was 4.51 µM and > 10 µM; in the assay on SR leukemia, 2.34 µM and 5.11 µM; in the assay on BT-549 breast, 4.38 µM and > 9.47 µM; in the assay with SNB-19 CNS, 15.6 µM and > 10 µM. The TGI is 0.686 µM and 1.76 µM with SNB-75 CNS; 9.16 µM and > 10 µM in the assay with MCF7 breast; 2.75 µM and 1.88 µM in the assay with HOP-92 NSCLC; more than 51 µM with PC-3 prostate.
In the case of `COc1ccc(NC(=O)n2nc(/C=C\c3ccc(O)c(OC)c3)cc2/C=C\c2ccc(O)c(OC)c2)cc1`, the GI50 in the assay on A549 NSCLC is 5.5 µM; in the assay with OVCAR-3 ovarian, 2.98 µM; in the assay on OVCAR-5 ovarian, 18.8 µM; with SR leukemia it was 1.52 µM; in the assay on BT-549 breast it was 2.49 µM; in the assay with SNB-19 CNS it was 5.28 µM. The GI50 with SNB-75 CNS is 2.35 µM; in the assay with MCF7 breast it was 3.03 µM; in the assay on HOP-92 NSCLC it was 7.77 µM; in the assay on PC-3 prostate, 5.11 µM. The TGI amounted to 97.9 µM in the assay on A549 NSCLC; 8.4 µM with OVCAR-3 ovarian; 54.1 µM with OVCAR-5 ovarian; 12.8 µM in the assay with SR leukemia; 29.5 µM with BT-549 breast; 86.7 µM in the assay on SNB-19 CNS. Also, the TGI in the assay on SNB-75 CNS is 16.3 µM; in the assay with MCF7 breast it was 17 µM; with HOP-92 NSCLC it was more than 100 µM; in the assay on PC-3 prostate it was more than 100 µM.
In the case of `CC[C@@]12C=CCN3CC[C@]4(c5cc(NC(=O)COc6cc(OCC(=O)Nc7cc8c(cc7OC)N(C)[C@H]7[C@@](O)(C(=O)OC)[C@H](OC(C)=O)[C@]9(CC)C=CCN%10CC[C@]87[C@@H]%109)cc7oc(-c8ccccc8)cc(=O)c67)c(OC)cc5N(C)[C@@H]4[C@](O)(C(=O)OC)[C@H]1OC(C)=O)[C@H]32`, the GI50 with A549 NSCLC is 7.14 µM; in the assay with OVCAR-3 ovarian it was 2.58 µM; in the assay with OVCAR-5 ovarian, 3.76 µM; in the assay with SR leukemia it was 2.06 µM; in the assay with BT-549 breast, 3.7 µM; in the assay on SNB-19 CNS, 5.71 µM. Further, the GI50 in the assay with SNB-75 CNS is 3.41 µM; in the assay with MCF7 breast it was 3.25 µM; in the assay with HOP-92 NSCLC, 7.07 µM; in the assay on PC-3 prostate, 2.91 µM. In addition, the TGI in the assay with A549 NSCLC is more than 100 µM; in the assay with OVCAR-3 ovarian, 9.72 µM; in the assay with OVCAR-5 ovarian, 48.2 µM; with SR leukemia, more than 100 µM; with BT-549 breast, more than 100 µM; with SNB-19 CNS, more than 100 µM. For the same molecule, the TGI in the assay with SNB-75 CNS was more than 100 µM; in the assay with MCF7 breast, 21.7 µM; in the assay with HOP-92 NSCLC it was 80.4 µM; in the assay with PC-3 prostate, more than 100 µM.
Consider `COc1cc2ncnc3c2cc1OCCCCCN(C)Cc1ccc(Br)cc1N3`, for which the GI50 with A549 NSCLC was 6.23 µM and 1.9 µM; in the assay on OVCAR-3 ovarian, 2.48 µM and 1.76 µM; in the assay on OVCAR-5 ovarian, 12.9 µM and 1.87 µM; in the assay with SR leukemia, 9.25 µM and 3.38 µM; in the assay with BT-549 breast, 21.8 µM and 6.87 µM; with SNB-19 CNS it was 24.6 µM and > 10 µM. Moreover, the GI50 was 6.14 µM and 2.91 µM with SNB-75 CNS; 8.89 µM and 5.35 µM in the assay on MCF7 breast; 3.61 µM and 1 µM with HOP-92 NSCLC; 4.65 µM and 3.85 µM in the assay on PC-3 prostate. In addition, the TGI in the assay on A549 NSCLC, in the assay with OVCAR-3 ovarian, in the assay on OVCAR-5 ovarian, in the assay with SR leukemia, in the assay with BT-549 breast and in the assay with SNB-19 CNS was more than 100 µM in each case. The TGI was 64 µM and > 10 µM with SNB-75 CNS; more than 100 µM in the assay on MCF7 breast; 71.5 µM and > 10 µM in the assay on HOP-92 NSCLC; more than 100 µM in the assay with PC-3 prostate.
On to `CC12CC=CCC1CCC1C2CCC2(C)C(c3ccc(=O)oc3)CCC12O` (stereo not given), for which the GI50 in the assay on A549 NSCLC is 0.032 µM; in the assay with OVCAR-3 ovarian, 0.0566 µM; in the assay with OVCAR-5 ovarian, 0.186 µM; in the assay with SR leukemia it was 0.03 µM; with BT-549 breast, 0.04 µM; in the assay on SNB-19 CNS, 0.295 µM. Besides, the GI50 in the assay on SNB-75 CNS was 0.0604 µM; in the assay on MCF7 breast it was 0.0794 µM; with HOP-92 NSCLC, 0.148 µM; with PC-3 prostate, 0.0747 µM. In addition, the TGI in the assay with A549 NSCLC was found to be 0.119 µM; with OVCAR-3 ovarian, 0.282 µM; with OVCAR-5 ovarian it was 0.482 µM; in the assay on SR leukemia it was 0.123 µM; with BT-549 breast it was 0.209 µM; with SNB-19 CNS, 1.19 µM. The TGI in the assay with SNB-75 CNS came to 0.302 µM; with MCF7 breast, 0.961 µM; in the assay on HOP-92 NSCLC, 0.756 µM; with PC-3 prostate, 0.309 µM.
